Eight molecules from patent US20230295109A1, “PYRIDINONE COMPOUNDS FOR THE TREATMENT OF AUTOIMMUNE DISEASE” (F. Hoffmann-La Roche AG, priority 2020, published 2023) can be followed below.

The nature of the data set: Parallel Artificial Membrane Permeability Assay (PAMPA). Format: in vitro ADME. Conditions: for Membrane Retention / Papp at 4 h: PAMPA; for Membrane Retention: pH 7.40, 4 hours; for Papp at 4 h: pH 7.4, pH 7.40, room temperature, read-out: PAMPA Pe; for PAMPA category: class from Pe and membrane retention. As to the method: PAMPA (Parallel Artificial Membrane Permeability Assay) is a first-line permeability screen for drug candidates. This assay mimics the transcellular absorption conditions using an artificial phospholipid membrane and generates a permeability value that can be used for compound ranking and optimization as well as input parameters for in silico models to predict intestinal absorption.
Permeation experiments are carried out in hydrophobic PVDF 96-well microtiter filter plates (MultiScreen Filter Plate, Millipore, #MAIPN4550). Each well is coated with PVDF membrane, which is prepared with 5 µL Dodecane (Sigma, D221104) that contains 1% lecithin (Sigma, P3556-1G).
The typical PAMPA experimental protocol is as follows: The donor plate is placed on a Teflon acceptor plate that has been pre-filled with 150 µL of 100 mM PBS buffer (2.6 g KH2PO4 and 18.5 g K2HPO4.3H2O are dissolved in about 1000 mL of ultra-pure water and mixed thoroughly. The pH is adjusted to 7.40 ± 0.05, using either 1 M sodium hydroxide or 1 M hydrochloric acid.) containing 5% DMSO. The filter on the bottom of each acceptor well is filled with 300 µL of 100 mM PBS buffer (2.6 g KH2PO4 and 18.5 g K2HPO4.3H2O are dissolved in about 1000 mL of ultra-pure water, mixed thoroughly. The pH was adjusted to 7.40 ± 0.05, using either 1 M sodium hydroxide or 1 M hydrochloric acid.). The resulting sandwich is incubated at room temperature under constant shaking (300 rpm) for 4 hours. The sandwich is then disassembled. Before incubation, spike 20 µL dosing solution and mix with 250 µL PBS and 130 µL quench solution (acetonitrile) as T0 sample. After incubation, collect 270 µL solutions from acceptor chamber, followed by the addition of 130 µL acetonitrile. Collect 20 µL solution from donor chamber and add 250 µL PBS and 130 µL acetonitrile. The concentration of compound in all samples are determined by LC-MS/MS and the equations for determining the permeability (Pe, 10^-6 cm/s ) are as follows.
VD is the volume of the donor well; VR is the volume of the acceptor well; Area is the active surface area of membrane; Time is the incubation time (14,400 s in this assay); CR and CD are the concentrations of compound in acceptor and donor solutions, respectively, at the completion of the assay; C0 is the concentration of compound in donor solution before incubation.
The main readout of the PAMPA assay is the permeability value Pe expressed in 10^-6 cm/s. Secondary readouts determined are the amounts of compound in the donor and acceptor compartments as well as compound retention in the membrane. Depending on the permeation rate and the membrane retention, compounds are classified as “low” (Pe < 0.2 and membrane retention <20%) or “medium & high” (Pe >= 0.2; or Pe < 0.2 and membrane retention >= 20%). Each sample is measured in triplicate; the standard deviation is determined for the permeation constant Pe.
For orientation: PAMPA measures passive passage across an artificial lipid membrane.

In the case of `Cc1cc(-c2ccc(N3CCN(Cc4cnc(N5CCNCC5)cn4)CC3)nc2C(C)C)cn(C)c1=O` [Example 8, 5-[2-isopropyl-6-[4-[(5-piperazin-1-ylpyrazin-2-yl)methyl]piperazin-1-yl]-3-pyridyl]-1,3-dimethyl-pyridin-2-one], the “Membrane Retention” value is reported as 21.370%; the Papp at 4 h was 0.95 ×10⁻⁶ cm/s; the PAMPA category entry is “medium & high (“medium & high” (Pe >= 0.2; or Pe < 0.2 and membrane retention >= 20%))”.

Consider `CCc1nc(N2CCN3CCN(c4cnc(N5CC6(CNCCO6)C5)nc4)CC3C2)ccc1-c1cc(C)c(=O)n(C)c1` (stereo not drawn) [Example 19, 5-[2-ethyl-6-[2-[2-(5-oxa-2,8-diazaspiro[3.5]nonan-2-yl)pyrimidin-5-yl]-3,4,6,7,9,9a-hexahydro-1H-pyrazino[1,2-a]pyrazin-8-yl]-3-pyridyl]-1,3-dimethyl-pyridin-2-one], for which the “Membrane Retention” value stood at 37.320%; the Papp at 4 h stood at 0.87 ×10⁻⁶ cm/s; the PAMPA category result is “medium & high (“medium & high” (Pe >= 0.2; or Pe < 0.2 and membrane retention >= 20%))”.

Consider `Cc1cc(-c2ccc(N3CCN(c4ccc5c(n4)CCNC5)CC3)nc2C(C)C)cn(C)c1=O` [Example 15, 5-[2-isopropyl-6-[4-(5,6,7,8-tetrahydro-1,6-naphthyridin-2-yl)piperazin-1-yl]-3-pyridyl]-1,3-dimethyl-pyridin-2-one], for which the “Membrane Retention” value was 27.680%; the Papp at 4 h was found to be 0.23 ×10⁻⁶ cm/s; the PAMPA category result is “medium & high (“medium & high” (Pe >= 0.2; or Pe < 0.2 and membrane retention >= 20%))”.

In the case of `CCc1nc(N2CCN(Cc3ccc(N4CC5(CNCCO5)C4)nc3)CC2)ccc1-c1cc(C)c(=O)n(C)c1` [Example 2, 5-[2-ethyl-6-[4-[[6-(5-oxa-2,8-diazaspiro[3.5]nonan-2-yl)-3 pyridyl]methyl]piperazin-1-yl]-3-pyridyl]-1,3-dimethyl-pyridin-2-one], the “Membrane Retention” value amounted to 10.600%; the Papp at 4 h amounted to 0.49 ×10⁻⁶ cm/s; the PAMPA category entry is “medium & high (“medium & high” (Pe >= 0.2; or Pe < 0.2 and membrane retention >= 20%))”.

With `Cc1cc(-c2ccc(N3CCN(Cc4cnc(N5CC6(CNCCO6)C5)nc4)CC3)nc2C(C)C)cn(C)c1=O` [Example 6, 5-[2-isopropyl-6-[4-[[2-(5-oxa-2,8-diazaspiro[3.5]nonan-2-yl)pyrimidin-5-yl]methyl]piperazin-1-yl]-3-pyridyl]-1,3-dimethyl-pyridin-2-one], the “Membrane Retention” value was found to be 19.190%; the Papp at 4 h was found to be 0.65 ×10⁻⁶ cm/s; the PAMPA category result was “medium & high (“medium & high” (Pe >= 0.2; or Pe < 0.2 and membrane retention >= 20%))”.

For the molecule `CCc1nc(N2CCN(Cc3cnc(N4CC(C)(N)C4)nc3)CC2)ccc1-c1cc(C)c(=O)n(C)c1` [Example 3, 5-[6-[4-[[2-(3-amino-3-methyl-azetidin-1-yl)pyrimidin-5-yl]methyl]piperazin-1-yl]-2-ethyl-3-pyridyl]-1,3-dimethyl-pyridin-2-one], the “Membrane Retention” value is reported as -1.260%; the Papp at 4 h amounted to 0.53 ×10⁻⁶ cm/s; the PAMPA category result was “medium & high (“medium & high” (Pe >= 0.2; or Pe < 0.2 and membrane retention >= 20%))”.

`CCc1nc(N2CCN(Cc3ccc(N4CCNCC4)cc3)CC2)ccc1-c1cc(C)c(=O)n(C)c1` [Example 5, 5-[2-ethyl-6-[4-[(4-piperazin-1-ylphenyl)methyl]piperazin-1-yl]-3-pyridyl]-1,3-dimethyl-pyridin-2-one]: the “Membrane Retention” value was determined as 18.250%; the Papp at 4 h was determined as 1.5 ×10⁻⁶ cm/s; the PAMPA category entry was “medium & high (“medium & high” (Pe >= 0.2; or Pe < 0.2 and membrane retention >= 20%))”.

Turning to `Cc1cc(-c2ccc(N3CCN(Cc4ncc(N5CCNCC5)cn4)CC3)nc2C(C)C)cn(C)c1=O` [Example 12, 5-[2-isopropyl-6-[4-[(5-piperazin-1-ylpyrimidin-2-yl)methyl]piperazin-1-yl]-3-pyridyl]-1,3-dimethyl-pyridin-2-one], the “Membrane Retention” value amounted to 15.270%; the Papp at 4 h worked out at 0.46 ×10⁻⁶ cm/s; the PAMPA category entry was “medium & high (“medium & high” (Pe >= 0.2; or Pe < 0.2 and membrane retention >= 20%))”.
